A melting point compilation (Tetko et al.; mined from patent text by program, amines drawn as free bases though some values may be those of a salt)

| Structure (SMILES) | melting point |
| --- | --- |
| CCn1c(=O)c2c(nc(/C=C/c3ccc(OCC(C)=O)c(OC)c3)n2C)n(CC)c1=O | 206 °C |
| CC(C)C[C@H](NC(=O)OC(C)(C)C)[C@H](O)CO | 58 to 59 °C |
| O=c1c(OCCCCl)c(-c2ccc(OCc3ccccc3)c(OCc3ccccc3)c2)oc2cc(OCc3ccccc3)ccc12 | 136 to 137 °C |
| CC#CCOc1ccc(S(=O)(=O)C(C(=O)NO)C2CCNCC2)cc1 (configuration not stated) | 140 °C |
| Cc1ccc(C(=O)Nc2cccc(C(F)(F)F)c2)cc1/C=C/n1cnc2c(NC3CC3)ncnc21 | 201 °C |
| COc1cc2c(cc1OC)C1(CCC(=O)NC1=O)CCC2=O (configuration not stated) | 269 to 271 °C |
| COc1ccccc1CSc1nc2cnccc2[nH]1 | 193 to 195 °C |
| N#CC(C#N)C(=O)c1ccc2ccccc2c1 | 121 °C |
| CC(C)(/C=C\Cl)C(=O)Nc1ccc(Cl)cc1 | 127 to 128 °C |
| CC(C)(C)OC(=O)NCCc1ccnc(-c2nc(=O)c3ccccc3s2)c1 | 160 to 161 °C |
| CC1=C(C(=O)OC(C)C)C(c2cccc([N+](=O)[O-])c2)C(S(=O)(=O)N(C)C)=C(C)N1 (configuration not stated) | 136 to 138 °C |
| O=C(O)CC1=CCCCC1n1nc(-c2c(-c3ccccc3)nn3ccccc23)ccc1=O (configuration not stated) | 164 to 166 °C |
| CCCCCCCCN[C@@H]1Cc2cc(OC)c(OC)cc2[C@H]1O (relative stereo) | 133 to 135 °C |
| COc1cc(NC(=O)c2ccc(-c3ccncc3)cc2)cc(N2CCN(C)CC2)c1OC | 219 to 221 °C |
| NCc1ccccc1-c1ccc(C(=O)N2Cc3ccc(C(=O)NCc4cccnc4)n3Cc3ccccc32)cc1 | 115 to 120 °C |
| CC(C)(C)C(O)(Cn1cncn1)C(=O)C=Cc1ccc(Cl)cc1 (configuration not stated) | 83 to 85 °C |
| CC(COS(C)(=O)=O)N1c2ccccc2Sc2ccc(C#N)cc21 (racemic) | 124 °C |
| COc1ccccc1N1CCN(CCN(CCCN2CC=C(c3c[nH]c4cc(F)ccc34)CC2)C(C)=O)CC1 | 75 to 77 °C |
| Cn1nc(C(F)(F)C(F)(F)F)c(C(F)(F)F)c1-n1cc(-c2ccc(Cl)c(C(=O)NC3CC3)c2)nn1 | 150 to 152 °C |
| O=C(O)CCC(=NO)c1ccc(-n2cccn2)cc1 | 128 to 130 °C |

| Structure (SMILES) | melting point |
| --- | --- |
| CCOC(=O)c1cc(CCc2cc3c(s2)-n2c(C)nnc2CN=C3c2ccccc2Cl)ccc1CC(=O)Nc1cccc(/C=C/c2nc(C3CCC3)cs2)c1 | 118 to 120 °C |
| CCCCc1ccc(C(=O)CCCn2ccnc2)cc1 | 125 to 128 °C |
| O=C(NCc1ccccn1)Nc1cc(N2CC(c3ccccc3)OC2=O)ccn1 (configuration not stated) | 190 to 191 °C |
| CN1C(=O)CCN(c2ccc(C(F)(F)F)cc2)C1=O | 115 to 117 °C |
| CCn1nc(C)c(N)c1C(N)=O | 143 to 145 °C |
| O=C(O)C(=O)c1ccc(OCCOc2ccccc2F)cc1 | 108 to 110 °C |
| COc1ccc(C)cc1NC(=O)Nc1ccc(N2CCN(C(=O)Nc3ccc(N)cc3C(F)(F)F)CC2)cc1 | 244 to 246 °C |
| C=C(C(=O)c1cc(OC)c(OC)c(-c2cccs2)c1)c1ccc(C(=O)O)cc1 | 159 to 160 °C |
| CC(C)C[C@H](NC(=O)OCC1c2ccccc2-c2ccccc21)C(=O)N[C@H]1CCOC1=O | 175 to 176 °C |
| CC(C)[C@H](NC(=O)N(C)Cc1cccnc1)C(=O)N[C@@H](Cc1ccccc1)C[C@H](O)[C@H](Cc1ccccc1)NC(=O)[C@@H](NC(=O)N(C)Cc1cccnc1)C(C)C | 193 to 196 °C |
| O=[N+]([O-])c1cc(NC(=S)N2CCCCN2)c(F)cc1Cl | 118 to 120 °C |
| Cc1ccc(CCCO)c(NCc2ccc3nc(NCCCN4CCOCC4)n(Cc4nc(C)c(C)nc4C)c3c2)c1 | 120 °C |
| CC(C)c1ccc(C(=O)NC(C)c2sccc2Br)cc1 (configuration not stated) | 133 °C |
| c1ccn(-c2nc(COc3ccc(CCCn4ccnc4)cc3)cs2)c1 | 93 to 94 °C |
| CCOC(=O)CC1c2cc(C(F)(F)F)ccc2C(=O)N1CC(F)(F)F (racemic) | 54.5 to 55.5 °C |
| Cc1c(C)c2c(c(C)c1NC(=O)NC(C)(C)CO)C(c1ccc(C(C)C)cc1)CO2 (configuration not stated) | 157 to 158 °C |
| O=C1C2CCCCN2C(=S)N1c1ccc(F)cc1F (configuration not stated) | 159 to 160 °C |
| CS(=O)(=O)c1ccc(C(=O)C2C(=O)CCC(S(C)(=O)=O)C2=O)c(Cl)c1 (configuration not stated) | 175 to 180 °C |
| S=[PH](c1ccccc1)c1ccccc1 | 134 to 135 °C |
| CC(C)(C)c1cc(C2=NC(=S)N=N2)cc(C(C)(C)C)c1O | > 250 °C |

| Structure (SMILES) | melting point |
| --- | --- |
| COc1ccccc1N1CCN(CC(C(=O)NC(C)(C)C)c2ccccn2)CC1 (configuration not stated) | 138 to 139 °C |
| COC(=O)c1cc(C(=O)N2CCC(O)CC2)cc(-n2cccc2)c1 | 158 to 159 °C |
| COc1ccc(S(=O)(=O)Nc2ccccc2N)cc1 | 141 to 142 °C |
| COC(=O)[C@H](Cc1ccc([N+](=O)[O-])cc1)NC(=S)c1c(C)cccc1Cl | 150 to 153 °C |
| Nc1c(Br)cc(C(=O)CBr)cc1Br | 146 to 147 °C |
| CCCOc1ccc(C2=NN(C(=O)Nc3ccc(OC(F)(F)F)cc3)CC2N(C)C(=O)OC)cc1 (configuration not stated) | 153 to 155 °C |
| CCOP(=O)(CC(=O)O)CC(Cc1ccccc1)NS(=O)(=O)c1ccc(C)cc1 (configuration not stated) | 110 to 112 °C |
| CON1CCC2(CC1)NC(=O)NC2=O | 230 to 234 °C |
| COC(=O)[C@@H]1CSC(=S)N1CC(C)(C)SCc1ccc(OC)cc1 | 125 to 127 °C |
| CC(C)(C)OOC(C)(CCC(=O)NNC(=O)c1ccccc1)OOC(C)(C)C | 147 to 149 °C |
| N#Cc1[nH]n(-c2ccccc2)c(=O)c1N=Nc1cc(S(=O)(=O)Cl)ccc1Cl | 115 to 120 °C |
| CCOCc1nc(C(=O)OCC)c(C(=O)OCC)[nH]1 | 60 to 61 °C |
| CCCN(Cc1ccc(C(=O)NC2Cc3ccccc3C2)cc1)C1CCc2ncsc2C1 (configuration not stated) | 65 °C |
| Cc1ccc(CC2CCN(CCOc3ccc4c(c3)=NC(=S)N=4)CC2)cc1 | 271 to 273 °C |
| COc1ccc2[nH]c(C(N)=O)c(OC(C)C)c2c1 | 138 to 140 °C |
| CC(=O)NCCc1ccc(CCC(=O)O)cc1 | 132 to 133 °C |
| Clc1ccc(Nc2ccnc(-c3cccc(Cl)n3)n2)cc1 | 174 to 176 °C |
| C=CCN1CCc2ccc(C(=O)CCC(=O)N3CCC(c4ccc(Cl)cc4)CC3)cc2CC1 | 136 to 137 °C |

Next, values leading:

| melting point | Structure (SMILES) |
| --- | --- |
| 268 to 271 °C | ON=C1c2ccccc2-c2c1c(-n1ccnc1)nc1ccc(Br)cc21 |
| 129 to 131 °C | CCc1c(COC(C)=O)nc(-c2ccc(OC)c(OC)c2)c2cc(OC)c(OC)cc12 |
| 226 to 227 °C | COc1ccc2c(c1)c(-c1cc3cccnc3[nH]1)cn2C |
| 76 to 78 °C | Cc1cc(C)c(S(=O)(=O)NC(CSc2ccccc2)C(F)(F)F)c(C)c1 (configuration not stated) |
| 120 to 123 °C | Clc1ccc(-c2ncsc2Cn2cncn2)c(Cl)c1 |
| 126 to 128 °C | CC(CO)NC(=O)c1ccc(CN(C2CCCCC2F)S(=O)(=O)c2ccc(Cl)cc2)c(F)c1F (configuration not stated) |
| 206 to 209 °C | COc1cccc2c1nc(C(F)F)n2-c1nc(N2CCOCC2)nc2c1ncn2-c1cccnc1 |
| 283 °C | COc1cc2c(-c3cc4cc(F)cnc4[nH]3)cn(C)c2cc1OC |
| 155 to 157 °C | Cc1nc2c(N)nc3ccccc3c2n1CCOCCN |
| > 310 °C | Cc1ccc(-c2c(C(N)=O)n(C)c(=O)c3ncccc23)cc1 |
| 97 to 100 °C | CC(=O)c1ccc2sc3ccccc3c2c1 |
| 185 to 186 °C | Oc1cc(C(F)CBr)c2oc(-c3ccc(O)c(F)c3)nc2c1 (configuration not stated) |
| 190 to 193 °C | O=c1[nH]ncc2cc(CCc3ccccc3)ccc12 |
| 127 to 128 °C | Cc1ccc(C(=O)c2ccc(F)cc2)nc1 |
| 48 to 50 °C | Fc1cc(Cl)cc(Cn2cccc2)c1 |
| 156 to 157 °C | CCn1c(=O)n(OCc2ccccc2)c(=O)c2cc(F)c(Cl)nc21 |
| 122 to 124 °C | CC(C)c1csc(/C=C/c2cccc(NC(=O)Cc3cccc(CC(=O)O)c3)c2)n1 |
| 214 to 216 °C | O=C(c1ccccc1)c1c[nH]c2ccc(OCc3ccc4ccccc4n3)cc12 |
| 81 to 83 °C | COc1ccc(-c2cccc([N+](=O)[O-])c2C)cn1 |
| 240 to 241 °C | CC(=O)N(C)c1ccc2sc3ccc(Br)cc3c(=O)c2c1 |

| melting point | Structure (SMILES) |
| --- | --- |
| 85 to 86 °C | Cc1oc(-c2cccs2)nc1COc1ccc(CCCCn2ccnc2)cc1 |
| 131 °C | Nn1nc(-c2ccc(Cl)cc2)cc1OCCN1CCCC1 |
| 269 to 271 °C | CC1=C(c2cccc(C(F)(F)F)c2)n2ncc3c(=O)[nH]c(=S)n(c32)C1 |
| 174 °C | CCCCc1c(CO)nc2ccccc2c1OCc1ccc(-c2ccccc2C(=O)O)cc1 |
| 173 to 175 °C | Cc1cc(C)cc(C(=O)c2c(C(C)C)c(=O)[nH]c(=O)n2Cc2ccc(N)cc2)c1 |
| 145 °C | COc1cc(Nc2nccc(-c3cccc(Br)c3)n2)cc(OC)c1OC |
| 235 to 250 °C | Cc1nc(-c2ccc(C#N)cc2)sc1C(=O)O |
| 160 to 162 °C | COc1cc(-c2csc(NCCCCCC(=O)Nc3ccc(C(F)(F)F)cc3)n2)cc([N+](=O)[O-])c1O |
| 154 °C | Cc1ccc(-c2cc(NCc3cccc(CNc4cc(-c5ccc(C)cc5)[nH]n4)n3)n[nH]2)cc1 |
| 162 to 164 °C | CN(CCOc1ccc(CC(Oc2ccc3ccccc3c2)C(=O)O)cc1)c1nc2ccccc2o1 (configuration not stated) |
| 79 to 81 °C | Cc1oc(-c2ccc(C(F)(F)F)cc2)nc1-c1ccc(-c2cc(Br)c(O)c(Br)c2)cc1 |
| 162 to 165 °C | O=[N+]([O-])c1ccc(CSc2cc(Cl)nc3c2ncn3C2OC(CO)C(O)C2O)cc1 (configuration not stated) |
| 133 to 134 °C | CS(=O)(=O)c1ccc(-c2sc(-c3ccccc3Cl)nc2-c2ccc(F)cc2)cc1 |
| 147 to 148 °C | Cc1oc(-c2ccccc2)nc1CCOc1ccc(Cn2cc(CCC(=O)O)c(-c3ccccc3)c2)cc1 |
| 135 to 137 °C | Cc1ccc2c(Br)c(F)cc([N+](=O)[O-])c2n1 |
| 140 to 141 °C | CCOC(=O)/C(=C/c1coc2cc(OC)ccc2c1=O)Cc1cc2c(cc1OC)OCO2 |
| 225 to 227 °C | COc1cc2nc(CO)c(CO)c(-c3ccnc(NN)c3)c2cc1OC |
| 223 to 225 °C | O=C(Nc1ccc(-c2nc3ccccc3s2)cc1)C(Cl)Cl |
| 206 to 209 °C | O=C(O)c1cc(NC(=O)C(CS)Cc2ccccc2)ccc1O (configuration not stated) |
